Results on one compound are retold here after US6540988B1, “Method of reducing or preventing malodour” (Quest International B.V., priority 1998, dated 2003).

This assay has as its system bacterial production of odoriferous steroids. Put plainly: sub-lethal inhibition of the bacterial production of odoriferous steroids. In kind it is cell-based.

Turning to `CC(C)(C)NC(=O)[C@H]1CC[C@H]2[C@@H]3CC[C@H]4NC(=O)C=C[C@]4(C)[C@H]3CC[C@]12C` [finasteride], the “sub-lethally inhibiting the bacterial production of odoriferous steroids” value was “incapable of sub-lethally inhibiting”.
